Results as given in paper PMC4494889 (Cell reports, 2015).
Positions count from the first letter of the chain named. Like-named read-outs stand apart in the source and are kept apart here.

How the values were obtained:
RIPK2 = RIPK2 (Homo sapiens, UniProt O43353); assay: ADP-Glo in vitro kinase assay, recombinant RIPK2; format: biochemical
RIPK3 [1] = molecular target: T1, RIPK3 (Homo sapiens, UniProt Q9Y572); assay: ADP-Glo in vitro kinase assay, recombinant RIPK3; format: biochemical
RIPK1 [2] = molecular target: T2, RIPK1 (Homo sapiens, UniProt Q13546); assay: ADP-Glo in vitro kinase assay, recombinant RIPK1
T2 sequence (Q13546 1-327): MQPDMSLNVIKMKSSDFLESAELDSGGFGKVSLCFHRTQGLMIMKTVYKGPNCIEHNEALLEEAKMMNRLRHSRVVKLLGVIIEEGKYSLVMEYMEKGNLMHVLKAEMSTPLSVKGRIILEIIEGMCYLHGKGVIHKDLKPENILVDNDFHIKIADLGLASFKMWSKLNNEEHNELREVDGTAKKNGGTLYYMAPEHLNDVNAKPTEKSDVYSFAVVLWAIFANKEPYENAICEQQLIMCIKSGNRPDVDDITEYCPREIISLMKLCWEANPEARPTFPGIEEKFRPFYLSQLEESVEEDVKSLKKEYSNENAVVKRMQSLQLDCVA

[3] = system: FADD-deficient Jurkat cells; assay: Jurkat cell necroptosis assay; settings: for IC50: read-out: IC50, nM Jurkat cell necroptosis assay (RIPK1/3-dependent)
RIPK1 [4] = molecular target: T2, RIPK1; assay: 32P autophosphorylation assay, recombinant RIPK1; format: biochemical; settings: 2 μM kinase
RIPK3 [5] = molecular target: T1, RIPK3; assay: 32P autophosphorylation assay, recombinant RIPK3; format: biochemical; settings: 2 μM kinase
RIPK1 [6] = molecular target: T2, RIPK1; assay: HTRF assay of RIPK1; format: biochemical
L157F/M92T RIPK1 = molecular target: T3, L157F/M92T RIPK1 (Homo sapiens, UniProt Q13546, L157F/M92T); assay: 32P autophosphorylation assay, L157F/M92T RIPK1; format: biochemical; settings: FLAG-tagged kinase (a.a. 1–327) from HEK293T cells
T3 sequence (Q13546 1-327 M92T/L157F): T2 sequence (Q13546 1-327) with M92T, L157F

[7] = molecular target: T4, RIPK1/RIPK3 “necrosome” complex (Mus musculus, UniProt Q60855); assay: Necrosome complex formation, co-IP assay in TCZ-stimulated MEFs; format: cell-based; settings: TCZ 6 hr, RIPK3 immunoprecipitation
T4 sequence (Q60855 1-656): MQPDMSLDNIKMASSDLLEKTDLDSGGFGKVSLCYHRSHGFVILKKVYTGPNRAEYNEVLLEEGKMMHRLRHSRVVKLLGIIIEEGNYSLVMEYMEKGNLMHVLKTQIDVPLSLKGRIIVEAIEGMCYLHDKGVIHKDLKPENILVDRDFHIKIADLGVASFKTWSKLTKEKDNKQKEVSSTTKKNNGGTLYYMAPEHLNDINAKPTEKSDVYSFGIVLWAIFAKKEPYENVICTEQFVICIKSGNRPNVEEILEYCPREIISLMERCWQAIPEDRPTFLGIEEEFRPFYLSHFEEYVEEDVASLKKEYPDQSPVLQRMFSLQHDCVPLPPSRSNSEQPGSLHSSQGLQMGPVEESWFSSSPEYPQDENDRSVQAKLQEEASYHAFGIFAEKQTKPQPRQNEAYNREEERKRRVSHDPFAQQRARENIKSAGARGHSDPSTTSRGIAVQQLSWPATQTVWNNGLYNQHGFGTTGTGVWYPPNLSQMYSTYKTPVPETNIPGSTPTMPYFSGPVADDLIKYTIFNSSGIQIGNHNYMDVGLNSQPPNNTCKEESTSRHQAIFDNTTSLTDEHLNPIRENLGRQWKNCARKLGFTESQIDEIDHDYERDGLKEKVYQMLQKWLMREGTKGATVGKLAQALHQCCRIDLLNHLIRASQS

[8] = system: TNFα mRNA in FADD-deficient Jurkat cells; assay: RIPK1-dependent TNFα mRNA upregulation, qRT-PCR, Jurkat; format: cell-based; settings: 10 ng/ml human TNFα, 8 hr
TNFα mRNA in iBMM cells = assay: RIPK1-dependent TNFα mRNA upregulation, qRT-PCR, iBMM; format: cell-based, mouse; settings: 10 ng/ml LPS and 50 μM zVAD.fmk, 7 hr
[9] = system: TNFα toxicity in C57BL6/J mice; assay: TNF-induced injury in vivo; settings: for activity with respect to survival and injury markers: 0.4 mg/kg i.p., versus Nec-1; for protection from TNFα toxicity in vivo: 15 min before 5 μg/mouse mouse TNFα i.v.
MEFs [10] = assay: RIPK1-dependent apoptosis of MEFs; settings: 10 ng/ml mouse TNFα + 100 nM 5z-7-oxozeaenol, 24 hr
Abl = Abl (Homo sapiens, UniProt P00519); assay: ADP-Glo in vitro kinase assay, recombinant Abl; format: biochemical; settings: read-out: IC50, nM ADPGlo, Abl; recombinant Abl (1 ng)
RIPK1−/− MEFs = assay: IFNγ-induced RIPK3-dependent cell death; settings: 10 ng/ml IFNγ, 24 hr
RIPK1 [11] = molecular target: T5, RIPK1 (Homo sapiens, UniProt Q13546); assay: ScanEDGE; format: binding; settings: 1 μM
T5 sequence (Q13546 1-671): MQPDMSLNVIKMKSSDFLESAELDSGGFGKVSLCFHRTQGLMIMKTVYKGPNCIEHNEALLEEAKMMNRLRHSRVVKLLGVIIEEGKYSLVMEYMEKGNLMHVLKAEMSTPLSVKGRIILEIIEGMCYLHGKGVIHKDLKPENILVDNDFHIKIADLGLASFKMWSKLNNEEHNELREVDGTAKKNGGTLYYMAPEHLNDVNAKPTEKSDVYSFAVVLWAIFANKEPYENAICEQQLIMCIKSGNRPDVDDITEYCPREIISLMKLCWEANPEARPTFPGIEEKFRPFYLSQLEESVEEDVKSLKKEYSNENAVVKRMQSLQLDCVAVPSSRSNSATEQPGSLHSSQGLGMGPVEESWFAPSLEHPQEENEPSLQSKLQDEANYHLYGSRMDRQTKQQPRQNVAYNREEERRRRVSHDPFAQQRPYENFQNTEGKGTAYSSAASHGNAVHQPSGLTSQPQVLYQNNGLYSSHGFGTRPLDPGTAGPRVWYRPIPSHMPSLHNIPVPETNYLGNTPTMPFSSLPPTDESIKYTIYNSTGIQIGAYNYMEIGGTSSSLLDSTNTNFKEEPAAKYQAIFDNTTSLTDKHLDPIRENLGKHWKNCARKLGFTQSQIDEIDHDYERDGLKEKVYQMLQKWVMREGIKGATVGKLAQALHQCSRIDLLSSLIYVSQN

DYRK1b = DYRK1b (Homo sapiens, UniProt Q9Y463); assay: ScanEDGE; format: binding; settings: 1 μM
[12] = system: diversity set of 97 kinases (90 wild type kinase and 7 mutants); format: binding, human; settings: 1 μM
MEFs [13] = assay: TCZ; format: cell-based; settings: 50 ng/ml mouse TNFα, 200 ng/ml cycloheximide, 25 μM zVAD.fmk, 18 hr
MEFs [14] = assay: poly; format: cell-based, mouse; settings: 5 μg/ml poly(I:C), 50 μM zVAD.fmk, 24 hr
[15] = read-out: IC50, nM ADPGlo, RIPK2, recombinant RIPK2 (10 ng)
[16] = read-out: IC50, nM ADPGlo, RIPK3, recombinant RIPK3 (20 ng)
[17] = read-out: IC50, nM ADPGlo, RIPK1, recombinant RIPK1 (20 ng)

Abl, sequence (P00519 whole entry, species assumed): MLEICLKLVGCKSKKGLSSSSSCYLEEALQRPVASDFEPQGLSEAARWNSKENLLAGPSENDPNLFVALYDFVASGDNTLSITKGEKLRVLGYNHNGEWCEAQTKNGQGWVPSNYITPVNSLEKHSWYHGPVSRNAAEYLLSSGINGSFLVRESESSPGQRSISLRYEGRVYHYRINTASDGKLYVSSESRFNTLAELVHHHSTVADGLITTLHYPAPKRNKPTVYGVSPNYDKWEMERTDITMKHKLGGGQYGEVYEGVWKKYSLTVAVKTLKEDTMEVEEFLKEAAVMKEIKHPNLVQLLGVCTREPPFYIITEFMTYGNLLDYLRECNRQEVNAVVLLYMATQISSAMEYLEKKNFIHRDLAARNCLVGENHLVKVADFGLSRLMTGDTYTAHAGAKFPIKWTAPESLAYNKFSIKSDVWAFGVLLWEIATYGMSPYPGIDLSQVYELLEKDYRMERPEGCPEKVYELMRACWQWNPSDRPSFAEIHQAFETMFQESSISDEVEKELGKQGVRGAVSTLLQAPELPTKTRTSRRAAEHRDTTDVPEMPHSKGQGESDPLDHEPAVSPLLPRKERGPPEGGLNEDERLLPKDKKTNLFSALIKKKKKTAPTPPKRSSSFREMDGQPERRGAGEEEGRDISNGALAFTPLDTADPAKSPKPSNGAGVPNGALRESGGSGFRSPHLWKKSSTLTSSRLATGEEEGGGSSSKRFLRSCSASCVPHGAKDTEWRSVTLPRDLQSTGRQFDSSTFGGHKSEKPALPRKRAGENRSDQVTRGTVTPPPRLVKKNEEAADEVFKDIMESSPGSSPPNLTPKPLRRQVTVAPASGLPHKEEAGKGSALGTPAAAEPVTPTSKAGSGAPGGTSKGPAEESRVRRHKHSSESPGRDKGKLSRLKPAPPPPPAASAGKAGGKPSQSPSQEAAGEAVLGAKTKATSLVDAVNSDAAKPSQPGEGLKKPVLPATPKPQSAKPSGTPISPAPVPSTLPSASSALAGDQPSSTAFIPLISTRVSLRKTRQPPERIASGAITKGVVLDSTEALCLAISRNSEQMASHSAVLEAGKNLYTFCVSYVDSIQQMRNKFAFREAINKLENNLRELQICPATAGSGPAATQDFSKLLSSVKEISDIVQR
T1 sequence (Q9Y572 whole entry, species assumed): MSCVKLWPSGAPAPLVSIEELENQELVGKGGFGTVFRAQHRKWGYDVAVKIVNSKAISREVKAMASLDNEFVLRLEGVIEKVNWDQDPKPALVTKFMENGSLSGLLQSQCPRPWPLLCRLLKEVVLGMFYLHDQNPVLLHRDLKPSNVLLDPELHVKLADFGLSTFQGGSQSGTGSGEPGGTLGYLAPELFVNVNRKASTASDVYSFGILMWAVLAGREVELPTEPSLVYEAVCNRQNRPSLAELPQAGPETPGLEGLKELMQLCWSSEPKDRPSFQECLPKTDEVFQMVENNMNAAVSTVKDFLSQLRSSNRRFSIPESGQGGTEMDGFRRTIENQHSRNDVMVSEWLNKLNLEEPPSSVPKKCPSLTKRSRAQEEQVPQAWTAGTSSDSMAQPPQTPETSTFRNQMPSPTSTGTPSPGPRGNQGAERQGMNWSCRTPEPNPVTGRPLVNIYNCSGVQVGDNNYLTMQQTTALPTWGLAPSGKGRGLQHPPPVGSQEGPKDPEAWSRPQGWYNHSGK
RIPK2, sequence (O43353 whole entry, species assumed): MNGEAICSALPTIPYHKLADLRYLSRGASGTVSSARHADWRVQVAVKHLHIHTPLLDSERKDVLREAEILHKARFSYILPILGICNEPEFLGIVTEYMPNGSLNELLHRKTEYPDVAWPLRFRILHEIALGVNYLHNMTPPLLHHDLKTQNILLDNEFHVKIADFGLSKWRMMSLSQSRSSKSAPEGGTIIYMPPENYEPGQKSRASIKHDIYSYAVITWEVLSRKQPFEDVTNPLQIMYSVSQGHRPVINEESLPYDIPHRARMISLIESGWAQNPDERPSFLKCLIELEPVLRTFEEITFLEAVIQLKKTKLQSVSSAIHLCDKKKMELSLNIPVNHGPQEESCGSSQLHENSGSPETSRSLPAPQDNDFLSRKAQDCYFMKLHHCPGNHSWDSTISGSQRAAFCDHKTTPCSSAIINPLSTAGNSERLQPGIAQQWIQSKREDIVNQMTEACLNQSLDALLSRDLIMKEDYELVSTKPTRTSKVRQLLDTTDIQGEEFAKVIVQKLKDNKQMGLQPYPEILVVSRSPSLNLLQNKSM
DYRK1b, sequence (Q9Y463 whole entry): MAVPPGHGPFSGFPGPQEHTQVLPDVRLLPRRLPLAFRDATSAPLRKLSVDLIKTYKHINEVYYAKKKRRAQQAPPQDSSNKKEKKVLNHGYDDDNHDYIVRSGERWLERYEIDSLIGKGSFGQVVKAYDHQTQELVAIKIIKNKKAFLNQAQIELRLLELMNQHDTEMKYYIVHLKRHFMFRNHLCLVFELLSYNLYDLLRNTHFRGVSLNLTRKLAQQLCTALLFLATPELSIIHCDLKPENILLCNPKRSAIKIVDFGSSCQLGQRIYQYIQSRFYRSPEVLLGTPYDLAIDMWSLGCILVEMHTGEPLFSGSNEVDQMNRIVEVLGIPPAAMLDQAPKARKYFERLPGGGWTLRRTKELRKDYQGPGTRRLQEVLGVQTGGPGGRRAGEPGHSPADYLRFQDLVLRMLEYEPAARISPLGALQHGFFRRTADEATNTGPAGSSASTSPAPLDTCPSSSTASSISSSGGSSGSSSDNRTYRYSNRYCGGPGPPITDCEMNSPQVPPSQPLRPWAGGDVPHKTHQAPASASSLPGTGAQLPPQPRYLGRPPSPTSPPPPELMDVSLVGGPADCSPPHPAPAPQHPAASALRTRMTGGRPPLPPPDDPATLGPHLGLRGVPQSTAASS

SMILES	IC50 (RIPK2; [15]) [nM]	IC50 (RIPK3 [1]; [16]) [nM]	IC50 ([3]; 10 ng/ml human TNFα, 24 hr) [nM]	inhibition of RIPK1 in 32P autophosphorylation assay (RIPK1 [4])	inhibition of RIPK3 in 32P autophosphorylation assay (RIPK3 [5])	inhibition of necrosome complex formation [7]	inhibition of TNFα mRNA upregulation, Jurkat cells [8]	inhibition of TNFα mRNA upregulation, immortalized macrophages (TNFα mRNA in iBMM cells)	protection from TNFα toxicity in vivo ([9]; 1 mg/kg i.p.)	IC50 (Abl) [nM]	inhibition of IFNγ-induced cell death (RIPK1−/− MEFs)	further results
CN1CCN(Cc2ccc(NC(=O)c3cccc(C#Cc4cnc5cccnn45)c3)cc2C(F)(F)F)CC1 [CS1]	63	7.4	219	–	–	–	–	–	–	–	–	IC50 (RIPK1 [2]; [17]): 42 nM
Cc1ccc(C(=O)Nc2ccc(CN3CCN(C)CC3)c(C(F)(F)F)c2)cc1C#Cc1cnc2cccnn12 [Ponatinib, ponatinib]	–	–	–	inhibition	inhibition	substantial, but lower activity	efficiently inhibited	efficiently inhibited	completely prevented toxicity of TNFα	–	–	inhibition of RIPK1 in HTRF assay (RIPK1 [6]): inhibition; inhibition of L157F/M92T RIPK1 in 32P autophosphorylation assay (L157F/M92T RIPK1): inhibited; activity with respect to survival and injury markers [9]: significantly higher activity than Nec-1; protection from RIPK1-dependent, RIPK3-independent apoptosis (MEFs [10]): protected
COc1ccc2c(c1)C1=NN(C(C)=O)C(c3ccc(F)cc3)C1CC2 (centres unmarked) [Nec-3]	> 10000	> 10000	260	–	–	–	–	–	–	> 10000	–	IC50 (RIPK1 [2]; [17]): 840 nM
Cc1cn(-c2cc(NC(=O)c3ccc(C)c(Nc4nccc(-c5cccnc5)n4)c3)cc(C(F)(F)F)c2)cn1 [Nilotininb]	–	–	–	–	–	–	–	–	–	–	Neither Gleevec nor Nilotininb	–
Cc1ccc(CCCCN2C(=O)NC(Cc3c[nH]c4c(Cl)cccc34)C2=O)cc1C#Cc1cnc2cccnn12 (centres unmarked) [PN10]	1400	–	–	–	–	efficiently inhibited	efficiently inhibited	efficiently inhibited	fully protective	> 10000	–	inhibition of RIPK1 in ScanEDGE panel (RIPK1 [11]): > 99%; inhibition of DYRK1b in ScanEDGE panel (DYRK1b): 79%; inhibition of other kinases of the ScanEDGE panel [12]: No other kinase was inhibited >65%; Maximal protection from TCZ-induced cell death (MEFs [13]): ~ 85%; activity with respect to survival and injury markers [9]: significantly higher activity than Nec-1
CN1C(=O)NC(Cc2c[nH]c3c(Cl)cccc23)C1=O (centres unmarked) [Nec-1, 7-Cl-O-Nec-1]	> 10000	> 10000	210	only inhibited RIPK1	only inhibited RIPK1	efficiently blocked necrosome assembly	inhibited	inhibited	significant protection from injury	> 10000	–	inhibition of poly(I:C)/zVAD.fmk-induced cell death (MEFs [14]): marginal protection; circulating levels of IL-6 ([9]; 1 mg/kg i.p.): reduced; survival of the animals ([9]; 1 mg/kg i.p.): prevented death of the animals
Cc1ccc(NC(=O)c2ccc(CN3CCN(C)CC3)cc2)cc1Nc1nccc(-c2cccnc2)n1 [Gleevec, Imatinib]	–	–	–	neither inhibited	neither inhibited	–	–	–	–	–	Neither Gleevec nor Nilotininb	prevention of necroptosis ([3]; 10 ng/ml human TNFα, 24 hr): nor prevented necroptosis
Cc1cc(-c2cnc(N)c3c(-c4ccc5scnc5c4)csc23)n(C)n1 [GSK-843]	–	–	–	–	–	not affected	–	–	–	–	–	protection from TCZ-induced cell death (MEFs [13]): efficiently protecting cells
CNC(=O)c1cc(Oc2ccc(NC(=O)Nc3cc(C(C)(C)C)nn3-c3ccc4ncccc4c3)c(F)c2)ccn1 [DCC-2036]	–	–	–	–	–	–	–	–	–	–	–	IC50 (RIPK2): 520 nM; IC50 (RIPK3 [1]): 18 nM; IC50 (RIPK1 [2]): 5.7 nM; cellular activity, fold lower than ponatinib ([3]; versus ponatinib): > 10 fold
CC(C)S(=O)(=O)c1ccc2nccc(Nc3ccc4scnc4c3)c2c1 [GSK-872]	–	–	–	–	–	not affected	–	–	–	–	blockade of cell death	inhibition of poly(I:C)/zVAD.fmk-induced cell death (MEFs [14]): inhibit; protection from TCZ-induced cell death (MEFs [13]): efficiently protecting cells; protection from RIPK1-dependent, RIPK3-independent apoptosis (MEFs [10]): did not inhibit RIPK1-dependent apoptosis
